{"source": "patent US20100292199A1", "about": "(priority 2007, published 2010)", "origin": "cited, not measured here", "data": [{"compound": "C[C@]12CC[C@H]3[C@@H](CCC4=CC(=O)CC[C@@]43C)[C@@H]1CC[C@@H]2O", "note": "[Testosterone]", "values": [{"measurement": "solubility in ethyl alcohol", "setting": "ethyl alcohol", "value": "soluble in ethyl alcohol"}, {"measurement": "solubility in water", "setting": "water", "value": "insoluble in water"}]}]}
